Patent publication US4579848A, “5-substituted[1,2,4]triazolo[1,5-c]pyrimidin-2-amines” (American Cyanamid Company, priority 1984, dated 1986)

Test system: immunologically stimulated human basophils
Assay: Inhibition of histamine release from immunologically stimulated human basophils
Format: cell-based
Details: Leukocyte, 1 h; human leukocytes challenged with anti-IgE or antigen, 60 minutes at 37° C.; linear regression; read-out: ED50 (the concentration in μM which causes a 50% inhibition of histamine release)
Experimental: The novel compounds of this invention have been tested by the procedure of Lichtenstein, L. M. and Osler, A. G., J. Exp. Med., 120, 507-530 (1964), which evaluates the ability of compounds to inhibit mediator (histamine) release from immunologically stimulated human basophils.
Eighty milliliters of blood is withdrawn from subjects with known histamine release to anti-IgE, ragweed antigen or other specific allergen, using four 20 ml heparinized tubes. This 80 ml of blood is mixed with 20 ml of saline containing 0.6 g of dextrose and 1.2 g of dextran. The blood is allowed to sediment at room temperature in two 50 ml polycarbonate centrifuge tubes until a sharp interface develops between the red cells and plasma (60-90 minutes). The plasma (top) layer from each tube is withdrawn by pipet and transferred to respective 50 ml polycarbonate tubes. The plasma is centrifuged for 8 minutes at 110X g at 4° C. The supernatant is carefully poured off as completely as possible and the cell button is resuspended in 2-3 ml of Tris-A buffer using a siliconized Pasteur pipet. The resuspension is accomplished by drawing the liquid gently in and out of the pipet, with the tip below the liquid, until an even suspension of cells is obtained. Sufficient Tris-A buffer is then added to bring the volume in the tube to about 45 ml and the tube is centrifuged at 110X g for 8 minutes at 4° C. The supernatant is poured off and the cell button is resuspended and centrifuged as described above. The supernatant is poured off and the cell button is suspended in 2-3 ml of Tris-ACM buffer to make the final volume sufficient to allow addition to the reaction tubes.
Reaction tubes containing anti-IgE or antigens, either alone or with test compound in a total volume of 0.2 ml are prepared and placed in a 37° C. bath. The cells are warmed to 37° C. and frequently swirled to ensure an even suspension, while 1.0 ml aliquots are added to each reaction tube. The tubes are then incubated for 60 minutes at 37° C., vortexing the tubes gently every 15 minutes to keep the cells evenly suspended. When the reaction is complete, the tubes are centrifuged at 4° C. for 10 minutes at 1500 rpm to sediment the cells. One ml aliquots of supernatant are transferred to 12X 75 mm polyethylene tubes and 0.2 ml of 8% perchloric acid is added to each tube. Blanks and totals are included in each test. The blanks have cells and all reagents except antigen or anti-IgE. The totals contain 0.24 ml of 8% perchloric acid, one ml of cells and 0.2 ml of buffer. All samples are then centrifuged to remove the precipitate protein.
This automated method has been described by Siraganian, R. P., in Anal. Biochem., 57, 383 (1974) and J. Immunol. Methods, 7, 283 (1975) and is based on the manual method of Shore, P. A., et al., J. Pharmacol. Exp. Ther., 217, 182 (1959).
The automated system consists of the following Technicon Autoanalyzer II components: Sampler IV, Dual-Speed Proportioning Pump III, Fluoronephelometer with a narrow pass primary filter 7-60 and a secondary filter 3-74, Recorder, and Digital Printer. The manifold used is the one described by Siraganian vide supra, with the following modifications: the dialyzer is omitted; all pumping tubes pass through a single proportioning pump with large capacity and twice the volume of sample is taken for analysis.
The automated chemistry consists of the following steps: Extraction from alkaline saline into butanol, back extraction into dilute hydrochloric acid by addition of heptane, reaction of histamine with o-phthaldialdehyde(OPT) at high pH and conversion of the OPT adduct to a stable fluorophore with phosphoric acid. The reaction product is then passed through the fluorometer. The full scale response is adjusted to 50 ng histamine base with a threshold sensitivity of approximately 0.5 ng.
The instrument blank (wash) is subtracted from the ng histamine of each sample. […]

Compound | IC50
Cc1ccc(S(=O)(=O)Nc2cccc(-c3nccc4nc(N)nn34)c2)cc1 [N-[3-(2-Amino[1,2,4]triazolo[1,5-c]pyrimidin-5yl)phenyl]-4-methylbenzenesulfonamide] | 1.5 µM
Nc1nc2ccnc(-c3ccncc3)n2n1 [5-(4-pyridinyl)[1,2,4]triazolo[1,5-c]pyrimidin-2-amine] | 33 µM
Nc1nc2ccnc(-c3cc[n+]([O-])cc3)n2n1 [5-(4-Pyridinyl)[1,2,4]triazolo[1,5-c]pyrimidin-2-amine, pyridine-1-oxide] | 4.9 µM
CC(=O)Nc1nc2c(C)cnc(-c3cccc([N+](=O)[O-])c3)n2n1 [N-[8-Methyl-5-(3-nitrophenyl)[1,2,4]triazolo[1,5-c]pyrimidin-2-yl]acetamide] | 11 µM
Cc1cc2nc(N)nn2c(-c2cccc(C(F)(F)F)c2)n1 [7-methyl-5-[3-(trifluoromethyl)phenyl][1,2,4]triazolo[1,5-c]pyrimidin-2-amine] | 100 µM
Nc1nc2ccnc(-c3cccc([N+](=O)[O-])c3)n2n1 [5-(3-nitrophenyl)[1,2,4]triazolo[1,5-c]pyrimidin-2-amine] | 3.8 µM
Cc1cnccc1-c1nccc2nc(N)nn12 [5-(3-methyl-4-pyridinyl)[1,2,4]triazolo[1,5-c]pyrimidin-2-amine] | 3.8 µM
CC(=O)Nc1nc2c(C)cnc(-c3cccc(NS(=O)(=O)c4ccc(C)cc4)c3)n2n1 [N-[8-Methyl-5-[3-[[4-methylphenyl)sulfonyl]amino]phenyl][1,2,4]triazolo[1,5-c]pyrimidin-2-yl]acetamide] | 34.4 µM
C#Cc1cccc(-c2nccc3nc(N)nn23)c1 [5-(3-Ethynylphenyl)[1,2,4]triazolo[1,5-c]pyrimidin-2-amine] | 14 µM
Nc1nc2ccnc(-c3cccc(C=O)c3)n2n1 [3-(2-Amino[1,2,4]triazolo[1,5-c]pyrimidin-5-yl)benzaldehyde] | 0.8 µM
Nc1nc2ccnc(-c3cccc(Br)c3)n2n1 [5-(3-bromophenyl)[1,2,4]triazolo[1,5-c]pyrimidin-2-amine] | 3.3 µM
CN(C)C(=O)c1cccc(-c2nccc3nc(N)nn23)c1 [3-(2-Amino[1,2,4]triazolo[1,5-c]pyrimidin-5-yl)-N,N--dimethylbenzamide] | 11 µM
Cc1cccc(-c2nccc3nc(N)nn23)c1 [5-(3-Methylphenyl)[1,2,4]triazolo[1,5-c]pyrimidin-2-amine] | 7.8 µM
Cc1cnc(-c2cccc(C(F)(F)F)c2)n2nc(N)nc12 [8-Methyl-5-[3-(trifluoromethyl)phenyl][1,2,4]triazolo[1,5-c]pyrimidin-2-amine] | 5.6 µM
Nc1nc2ccnc(-c3cccc(Cl)c3)n2n1 [5-(3-chlorophenyl)[1,2,4]triazolo[1,5-c]pyrimidin-2-amine] | 4.3 µM
Nc1nc2ccnc(-c3cccc(C(Cl)Cl)c3)n2n1 [5-[3-(dichloromethyl)phenyl][1,2,4]triazolo[1,5-c]pyrimidin-2-amine] | 1.2 µM
Nc1nc2ccnc(-c3cccc(OC(F)F)c3)n2n1 [5-[3-(difluoromethoxy)phenyl][1,2,4]triazolo[1,5-c]pyrimidin-2-amine] | 3 µM
CCOC(=O)c1ccc(-c2nccc3nc(N)nn23)cc1 [4-(2-amino[1,2,4]triazolo[1,5-c]pyrimidin-5-yl)benzoic acid, ethyl ester] | 16 µM
CNc1nc2ccnc(-c3cccc(C(F)(F)F)c3)n2n1 [N-Methyl-5-[3-trifluoromethyl)phenyl][1,2,4]triazolo[1,5-c]pyrimidin-2-amine] | 16 µM

The next lines start with the values.

IC50 | Compound
49.4 µM | Nc1nc2ccnc(-c3cccnc3)n2n1 [5-(3-pyridinyl)[1,2,4]triazolo[1,5-c]pyrimidin-2-amine]
31 µM | Nc1nc2ccnc(-c3ccc(F)cc3)n2n1 [5-(4-fluorophenyl)[1,2,4]triazolo[1,5-c]pyrimidin-2-amine]
20 µM | CC(=O)Nc1nc2ccnc(-c3cccc(C(F)(F)F)c3)n2n1
11 µM | CCOC(=O)c1cccc(-c2nccc3nc(N)nn23)c1 [3-(2-amino[1,2,4]triazolo[1,5-c]pyrimidin-5-yl)benzoic acid, ethyl ester]
9.5 µM | OC(CCl)CNc1nc2ccnc(-c3cccc(C(F)(F)F)c3)n2n1 (centres unmarked) [1-Chloro-3-[[5-[3-(trifluoromethyl)phenyl][1,2,4]triazolo[1,5-c]pyrimidin-2-yl]amino]-2-propanol]
8.7 µM | Cc1cnc(-c2cccc([N+](=O)[O-])c2)n2nc(N)nc12 [8-Methyl-5-(3-nitrophenyl)[1,2,4]triazolo[1,5-c]pyrimidin-2-amine]
2.7 µM | Nc1nc2ccnc(-c3cccc(C(F)(F)F)c3)n2n1 [5-[3-(trifluoromethyl)phenyl][1,2,4]triazolo[1,5-c]pyrimidin-2-amine]
1.7 µM | CC(=O)Nc1nc2ccnc(-c3cccc(NS(=O)(=O)c4ccc(C)cc4)c3)n2n1 [N-[5-[3-[[(4-Methylphenyl)sulfonyl]amino]phenyl]-[1,2,4]triazolo[1,5-c]pyrimidin-2-yl]acetamide]
0.7 µM | Nc1nc2ccnc(-c3cc(C(F)(F)F)cc(C(F)(F)F)c3)n2n1 [5-[3,5-bis(trifluoromethyl)phenyl][1,2,4]triazolo[1,5-c]pyrimidin-2-amine]

Test system: female Hartley-strain guinea pigs
Assay: Passive Anaphylaxis Test
Format: in vivo, guinea pig
Set-up: key: If the Fisher test is significant, the compound is considered active; If the rank sum test is significant, the compound is considered to have weak activity
Details: oral, one hour before ovalbumin challenge; standard dose 50 mg/kg; ten animals
Experimental: At -48 hours (relative to antigen challenge at time 0), 2 ml of saline containing 0.2-0.05 IgG hyperimmune serum (depending on batch of antibody used) was injected intraperitoneally (i.p.) into 250-300 g female Hartley-strain guinea pigs. One hour before challenge, the test compound is given to ten animals orally at 4 ml/kg of a suspension in 0.5% carboxymethylcellulose. The standard dose is 50 mg/kg. Ten control animals receive the vehicle only. The challenge consists of an intravenous injection of 0.25-2.0 mg of ovalbumin in one ml of saline. The time to the first observable symptom of anaphylaxis (normally this is a scratching of the nose) and the time to loss of righting reflex are recorded for each animal. Thirty minutes after the challenge the numbers of deceased and living animals are also recorded.
The treated and control groups are compared by a Mann-Whitney rank sum test for the times to symptom and times to collapse. In addition, a Fisher's exact test is done on the number of collapsed vs. noncollapsed for control and treated groups. If the Fisher test is significant, the compound is considered active. If the rank sum test is significant, the compound is considered to have weak activity.

Compound | activity in passive anaphylaxis test (Fisher's exact test on collapsed vs. noncollapsed)
Nc1nc2ccnc(-c3ccccn3)n2n1 [5-(2-pyridinyl)[1,2,4]triazolo[1,5-c]pyrimidin-2-amine] | active
